Results from patent US8334377B2, “Porphyrin catalysts and methods of use thereof” (The Trustees of Princeton University, priority 2006, dated 2012).

Key:
[1] = Determination of peroxynitrite decomposition catalysis: rates of reaction between peroxynitrite and iron porphyrins in phosphate buffer; assay type: biochemical; details: phosphate buffer pH=7.4
Protocol: To screen compounds for peroxynitrite decomposition catalytic activity of the invention, peroxynitrite is prepared and isolated as its sodium salt by the reaction of acidic hydrogen peroxide with sodium nitrite followed by rapid quenching with NaOH as set out by Halfpenny and Robinson, in J. Chem. Soc., 928-938 (1952). Peroxynitrite has an absorbance maximum at 302 nm with an extinction coefficient of 1670 M^−1 cm^−1. Therefore, it is possible to directly observe the decomposition of peroxynitrite by monitoring the change in absorbance at 302 nm by stop-flow spectrophotometric analysis. For example, the decomposition of peroxynitrite at an accelerated rate (relative to the natural decomposition rate of peroxynitrite) upon the addition of the decomposition catalysts of the invention.
A high rate of peroxynitrite decomposition is an important indicator of biological activity in vitro and in vivo. The rates of reaction between peroxynitrite and various iron porphyrins were measured at several different concentrations of catalyst in phosphate buffer (pH=7.4). The ONOO^− decay rate (M^−1s^−1) for FeTDMImP was determined to be […], and the keat, for FeTDCMImP was measured at 4.6×10^5. In the same studies the decay rates for the iron porphyrins FeTDMImP, FeTDCMImP, FeTDPImP (see, e.g., U.S. Pat. No. 6,448,239) were 1.1×10^6. 4.6×10^5 and 1.9×10^6, respectively.

[2] = Stopped-flow spectrometry of peroxynitrite decomposition, absorption of peroxynitrite at 324 nm monitored; assay type: biochemical; details: pH 7.4 phosphate buffer
Protocol: FIG. 4 is stopped-flow spectroscopy of peroxynitrite decomposition catalyzed by FeTDCImP (12). (A) diode array scan of 10 μM (12) in pH 7.4 PBS mixed with 600 μM, t=2 s; (B) decay of peroxynitrite monitored at 324 nm, condition that same as in A. It was fitted into a first order kinetics model using KinetAssyst software. Data was average of four parallel experiments.
It was rationalized that the electron-withdrawing cationic feature elevated its catalytic activity as compared to anionic porphyrins, while its electron-donating anionic feature lowered its catalytic activity as compared to cationic porphyrins.

| Compound | decay rates for the iron porphyrins (in the same studies) [1] | keat [1] | second order rate constant of peroxynitrite decomposition [2] [M⁻¹ s⁻¹] |
| --- | --- | --- | --- |
| COCCOCCn1cc[n+](CCOCCOC)c1-c1c2nc(c(-c3n(CCOCCOC)cc[n+]3CCOCCOC)c3ccc([n-]3)c(-c3n(CCOCCOC)cc[n+]3CCOCCOC)c3nc(c(-c4n(CCOCCOC)cc[n+]4CCOCCOC)c4ccc1[n-]4)C=C3)C=C2.[Fe+3] [FeTDPImP, iron(III) meso-tetrakis(N,N-di-(2-(2-methoxyethoxy)ethyl)-imidazol-2-yl)porphyrin] | 1.9×10^6 | – | – |
| iron(III) meso-tetrakis(N,N-dicarboxymethyl)-imidazol-2-yl)porphyrin [FeTDCMImP] | 4.6×10^5 | 4.6×10^5 | 430000 |
